# Laboratory results from patent publication US6063773A, “Cellulose sulfate for use as antimicrobial and contraceptive agent” (Polydex Pharmaceuticals Ltd., priority 1995, dated 2000).
# Columns and labels:
# [1] = rabbit, in vivo
# spermatozoa = test: Cervical mucus penetration experiments; type: cell-based; conditions: 1% concentration, in vitro, FIG. 3
# From the text: FIG. 3 is a table providing the results of cervical mucus penetration experiments.
# conception in rabbits = test: Contraceptive efficacy when applied vaginally; type: in vivo, rabbit
# From the text: FIG. 2 is a table showing the contraceptive efficacy of cellulose sulfate when applied vaginally.
# N. gonorrhea = test: Infectivity of N. gonorrhea; type: cell-based; conditions: FIG. 7
# From the text: FIG. 7 is a table illustrating the effects of cellulose sulfate on the infectivity of N. gonorrhea.
# (§1) Moreover, cellulose sulfate of the present invention at 1.8% has no effect on normal vaginal flora, namely Lactobacilli (FIG. 8).
# HSV = HSV infectivity experiments; type: cell-based; conditions: in vitro, FIG. 6
# From the text: FIG. 6 is a table providing the results of HSV infectivity experiments.
# Lactobacilli = test: Growth of Lactobacilli; type: cell-based; conditions: 1.8%, FIG. 8
# From the text: FIG. 8 is a table illustrating the effects of cellulose sulfate on the growth of Lactobacilli.
# as §1
# [2] = test system: chlamydial infection of HeLa cells; test: Anti-chlamydial effect, chlamydial infection of HeLa cells; type: cell-based; conditions: 100 μg/ml, FIG. 9
# Procedure: FIG. 9 is a table illustrating anti-chlamydial effects of cellulose sulfate .
# FIG. 9 illustrates anti-chlamydial effect of cellulose sulfate. At a concentration of 100 μg/ml, cellulose sulfate inhibits chlamydial infection of HeLa cells by 91%.
# HIV [3] = test: HIV inhibition assay; type: cell-based; conditions: concentration of 0.005%, in vitro, FIG. 5
# From the text: FIG. 5 is a table illustrating the results of HIV inhibition assay experiments.
# rabbit spermatozoa = test: Fertilization outcome after artificial insemination of spermatozoa pretreated with polysaccharides; type: in vivo; conditions: for anti-fertility effect of treating spermatozoa: spermatozoa treated with comparator polysaccharide
# From the text: FIG. 1 is a table showing fertilization outcome after artificial insemination of spermatozoa pretreated with different polysaccharides.
# FIG. 1 illustrates the antifertility effect of cellulose sulfate on rabbit spermatozoa at a concentration as low as 0.1%.
# human spermatozoa = test: Acrosome reaction of human spermatozoa; type: cell-based; conditions: FIG. 4
# From the text: FIG. 4 is a table illustrating the influence of cellulose sulfate on acrosome reaction of human spermatozoa.
# Acrosome refers to the anterior organelle of the sperm head necessary for fertilization of an egg by the sperm.
# [4] = test system: Herpes Simplex Virus (HSV); conditions: known from the art; cited from earlier work
# HIV [5] = conditions: known from the art; cited from earlier work
# [6] = if used frequently; cited from earlier work
substance,measurement,setting,value
cellulose sulfate,vaginal irritation,[1],minimal vaginal irritation
same,vaginal irritation in combination with nonoxynol-9,[1],does not cause an increase in the vaginal irritation of nonoxynol-9
same,penetration by spermatozoa into the cervical mucus,spermatozoa,"impedes penetration by spermatozoa into the cervical mucus membrane in vitro, and to a significantly greater extent than dextran sulfate"
same,percentage of fertilized oocytes compared with nonoxynol-9,"conception in rabbits; 5% cellulose sulfate vs 2.2% commercial preparation of nonoxynol-9, intravaginal, rabbits",as effective or more effective than nonoxynol-9
same,risk of conception,"conception in rabbits; 5% formulation applied intra-vaginally in rabbits, FIG. 2",reduces the risk of conception
same,concentration that can completely kill N. gonorrhea,N. gonorrhea,at least 0.01%
same,concentration inhibiting infection of human cells by HSV,HSV,≤ 0.00001%
same,"effect on normal vaginal flora, Lactobacilli",Lactobacilli,no effect
same,inhibition of chlamydial infection of HeLa cells,[2],91%
same,binding of HIV to human cells,HIV [3],inhibits the binding of HIV to human cells
same,conception in rabbits inseminated with treated spermatozoa,rabbit spermatozoa; pre-treatment of spermatozoa with 1% cellulose sulfate,effectively prevented conception
same,concentration showing antifertility effect on rabbit spermatozoa,"rabbit spermatozoa; pre-treatment of spermatozoa, artificial insemination, FIG. 1",≤ 0.1%
same,acrosomal loss in human spermatozoa,human spermatozoa,"induces acrosomal loss in human spermatozoa, and to a significantly greater extent than heparin or dextran sulfate"
dextran sulfate,HSV inhibition,[4],inhibit Herpes Simplex Virus (HSV)
same,anti-fertility effect of treating spermatozoa,rabbit spermatozoa,little or no anti-fertility effect
same,HIV infectivity in vitro,HIV [5],inhibit HIV infectivity in vitro
heparin [reference compound],anti-fertility effect of treating spermatozoa,rabbit spermatozoa,little or no anti-fertility effect
heparin sulfate,HSV inhibition,[4],inhibit HSV infectivity
same,HIV infectivity in vitro,HIV [5],inhibit HIV infectivity in vitro
nonoxynol-9,effect on natural vaginal flora,[6],inactivates the natural protective vaginal flora
same,irritation of vaginal mucus membrane,[6],causes irritation to the mucus membrane of the vagina
